# Experimental data as given in article PMC10895674, “First-in-Class Dual EZH2-HSP90 Inhibitor Eliciting Striking Antiglioblastoma Activity In Vitro and In Vivo” (Journal of Medicinal Chemistry, 2024).
# Tests used:
# EZH2 = EZH2 (Homo sapiens, UniProt Q15910); test: EZH2 inhibition assay (Reaction Biology Corp.); assay type: biochemical; conditions: 10-dose IC50 mode, 3-fold serial dilution starting at 10 μM, single experiment
# Experimental: The EZH2 inhibitory ability of the synthesized adduct was assessed by Reaction Biology Corporation Malvern, PA. (http://www.reactionbiology.com).
# HSP90a = HSP90a (Homo sapiens, UniProt P07900); test: In vitro Hsp90 assay (Reaction Biology Corp.); assay type: biochemical; conditions: 10-dose IC50 mode, 3-fold serial dilution starting at 10 μM, single experiment; '-' read as no inhibition
# Experimental: The HSP90 inhibitory activity of the synthesized adduct was assessed by Reaction Biology Corporation Malvern, PA. (http://www.reactionbiology.com).
# Pt3R cells [1] = test: Itraq-based proteomics analysis of global protein expression; assay type: cell-based, human; conditions: 2 μM
# Source text: Having identified the desired chemical probe 7, we assessed global protein expression using Itraq-based proteomics analysis to estimate whether 7 suppresses HSP90 (Pt3R cell lines). […] This observation is aligned with the results attained with geldanamycin treatment (a well-known HSP90 inhibitor)[49],[50] and confirms the HSP90-suppressive activity of compound 7 in GBM cells.
# RNA was isolated using the RNA extracting kit (Zymo Research, Irvine, CA) and subjected to RNA-seq serviced by BIOTOOLS Co., Ltd. (New Taipei City, Taiwan). Cell pellets were collected and subjected to proteomic analysis serviced by BIOTOOLS Co., Ltd. The comparison in gene expression between Pt3 and Pt3R was performed using RNA seq and described previously.[60]
# [2] = system: TMZ-resistant cells (Pt3R); test: Cell viability CCK8 assay; assay type: cell-based, human; conditions: Homo sapiens, 72 h, CCK8, read-out: IC50, cell growth inhibitory effects
# Source text: The CCK8 reagent was purchased from TargetMOI (Wellesley Hills, MA) and used according to the manufacturer’s instruction.
# Pt3R cells [3] = test: Cell cycle analysis (PI staining, flow cytometry); assay type: cell-based, human; conditions: 24 h treatment (Figure 8E)
# Experimental: Figure 8 Compound 7 suppresses gene expression of CENP family. (A) Compound 7-suppressed CENP family. (B) Gene expression of CENP family in Pt3 and TMZ-resistant Pt3R cells. (C) Prognostic value was analyzed using the GlioVis Web site. (D) Western blotting was used to confirm that compound 7 decreased CENPs expression. (E) Cell cycle analysis. After treatment for 24 h, cells were stained with propidium iodide (PI) and subjected to flow cytometry analysis.
# mitochondria-derived ROS = test: MitoSOX assay; assay type: cell-based; conditions: Figure 10C
# Experimental: Thus, the ability of compound 7 to disturb redox homeostasis in TMZ-resistant cells and attain amplified therapeutic efficacy for GBM was evaluated. In both Pt3 and Pt3R cells, treatment with compound 7 for 48 h increased the ROS level (Figure 10A). […] Moreover, it was also observed that compound 7 increased mitochondria-derived ROS.
# Figure 10 Compound 7 triggers ROS production from mitochondria. (A) After treatment for 48 h, cells were stained with the DHR reagent, and the fluorescent signal was estimated by flow cytometry. Treatment concentration of compound 7 was indicated. (B) Protein lysates were subjected to Western blotting using the indicated antibody. (C) After staining with MitoSOX (red) and Hoechst 33342 (blue), cellular signals were photographed and quantified D. Protein lysates were subjected to Western blotting using the indicated antibody.
# Dihydrorhodamine 123 (DHR; Thermo Fisher Scientific, Waltham, MA) was used to label cellular ROS detected by the flow cytometry,[54] and the MitoSOX reagent (Thermo Fisher Scientific) was used to label mitochondrial ROS.[55]
# [4] = system: blood–brain barrier (BBB); test: BBB permeability (chamber coated with endothelial cells and astrocytes, MTT of Pt#3-R in lower chamber); assay type: in vitro ADME; conditions: upper chamber, 72 h; 0, 1, 5, 10 (mM printed); viability of Pt#3-R in lower chamber by MTT
# Experimental: Fig. S1 Compound 7 was added in the upper chamber coated with endothelial cells and astrocytes, and incubated
# for 72 h. Subsequently, the viability of Pt#3-R in the lower chamber was analyzed by the MTT assay. As shown […]
# Chain of EZH2 (Q15910 whole entry): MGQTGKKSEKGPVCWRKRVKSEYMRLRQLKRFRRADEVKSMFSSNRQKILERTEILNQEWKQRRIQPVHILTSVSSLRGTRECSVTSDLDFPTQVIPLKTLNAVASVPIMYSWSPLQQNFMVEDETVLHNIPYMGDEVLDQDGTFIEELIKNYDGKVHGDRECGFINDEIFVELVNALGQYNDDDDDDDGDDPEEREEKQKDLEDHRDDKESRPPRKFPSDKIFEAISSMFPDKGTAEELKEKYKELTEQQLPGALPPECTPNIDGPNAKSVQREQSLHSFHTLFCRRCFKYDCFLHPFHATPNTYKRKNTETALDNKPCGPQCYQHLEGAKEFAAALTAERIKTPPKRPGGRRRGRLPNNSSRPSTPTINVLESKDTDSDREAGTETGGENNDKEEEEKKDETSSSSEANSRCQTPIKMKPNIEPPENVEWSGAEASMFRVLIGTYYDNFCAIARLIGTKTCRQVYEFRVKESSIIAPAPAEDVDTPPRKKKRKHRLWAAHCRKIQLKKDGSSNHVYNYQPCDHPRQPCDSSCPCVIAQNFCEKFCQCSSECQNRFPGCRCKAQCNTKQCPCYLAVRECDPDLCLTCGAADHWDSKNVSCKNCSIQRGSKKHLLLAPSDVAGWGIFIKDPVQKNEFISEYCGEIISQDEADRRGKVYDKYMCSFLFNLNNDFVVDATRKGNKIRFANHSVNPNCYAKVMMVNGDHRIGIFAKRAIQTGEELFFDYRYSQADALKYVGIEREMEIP
# Chain of EZH2 (O75530 whole entry partner): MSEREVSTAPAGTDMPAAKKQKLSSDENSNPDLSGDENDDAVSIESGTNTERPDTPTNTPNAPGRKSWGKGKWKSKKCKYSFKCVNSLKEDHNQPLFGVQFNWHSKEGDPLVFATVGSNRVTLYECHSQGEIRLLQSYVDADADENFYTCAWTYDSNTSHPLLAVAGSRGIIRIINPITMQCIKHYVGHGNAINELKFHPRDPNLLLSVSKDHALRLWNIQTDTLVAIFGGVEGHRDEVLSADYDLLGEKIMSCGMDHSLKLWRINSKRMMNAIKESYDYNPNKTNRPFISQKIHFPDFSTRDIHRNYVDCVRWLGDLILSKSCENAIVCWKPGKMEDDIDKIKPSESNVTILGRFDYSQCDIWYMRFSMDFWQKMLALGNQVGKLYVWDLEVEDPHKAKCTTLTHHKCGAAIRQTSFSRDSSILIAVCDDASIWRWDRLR
# Chain of EZH2 (Q15022 whole entry partner): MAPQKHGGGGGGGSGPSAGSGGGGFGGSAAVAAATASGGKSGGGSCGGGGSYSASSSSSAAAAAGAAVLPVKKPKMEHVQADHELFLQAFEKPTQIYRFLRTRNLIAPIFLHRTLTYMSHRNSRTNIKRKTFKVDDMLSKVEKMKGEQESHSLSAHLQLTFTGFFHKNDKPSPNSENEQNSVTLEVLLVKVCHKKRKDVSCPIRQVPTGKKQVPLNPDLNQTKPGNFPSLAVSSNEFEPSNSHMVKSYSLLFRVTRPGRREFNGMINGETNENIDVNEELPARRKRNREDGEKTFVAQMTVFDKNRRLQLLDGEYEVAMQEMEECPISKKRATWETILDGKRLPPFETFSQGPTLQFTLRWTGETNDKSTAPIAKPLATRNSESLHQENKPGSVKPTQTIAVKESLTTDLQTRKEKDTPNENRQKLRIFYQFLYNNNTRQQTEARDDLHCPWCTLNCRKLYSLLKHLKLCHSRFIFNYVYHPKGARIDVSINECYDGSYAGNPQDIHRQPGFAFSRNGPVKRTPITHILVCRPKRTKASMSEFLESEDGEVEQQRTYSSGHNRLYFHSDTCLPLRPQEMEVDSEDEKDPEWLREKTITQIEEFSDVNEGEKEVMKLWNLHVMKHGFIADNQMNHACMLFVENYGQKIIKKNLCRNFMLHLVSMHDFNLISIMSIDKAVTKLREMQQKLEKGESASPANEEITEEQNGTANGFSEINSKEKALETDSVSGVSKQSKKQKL
# Chain of EZH2 (Q09028 whole entry partner): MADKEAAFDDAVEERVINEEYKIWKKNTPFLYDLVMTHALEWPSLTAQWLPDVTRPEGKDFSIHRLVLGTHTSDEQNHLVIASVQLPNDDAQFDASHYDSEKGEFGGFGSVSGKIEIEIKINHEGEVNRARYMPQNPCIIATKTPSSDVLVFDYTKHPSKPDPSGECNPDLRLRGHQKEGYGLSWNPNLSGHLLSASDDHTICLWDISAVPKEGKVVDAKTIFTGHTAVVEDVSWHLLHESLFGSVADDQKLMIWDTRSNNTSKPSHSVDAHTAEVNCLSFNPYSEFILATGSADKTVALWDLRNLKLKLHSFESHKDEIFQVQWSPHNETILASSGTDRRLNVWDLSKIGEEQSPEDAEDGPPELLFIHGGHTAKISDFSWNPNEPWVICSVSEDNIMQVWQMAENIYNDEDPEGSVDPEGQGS
# Chain of EZH2 (Q6ZN18 whole entry partner): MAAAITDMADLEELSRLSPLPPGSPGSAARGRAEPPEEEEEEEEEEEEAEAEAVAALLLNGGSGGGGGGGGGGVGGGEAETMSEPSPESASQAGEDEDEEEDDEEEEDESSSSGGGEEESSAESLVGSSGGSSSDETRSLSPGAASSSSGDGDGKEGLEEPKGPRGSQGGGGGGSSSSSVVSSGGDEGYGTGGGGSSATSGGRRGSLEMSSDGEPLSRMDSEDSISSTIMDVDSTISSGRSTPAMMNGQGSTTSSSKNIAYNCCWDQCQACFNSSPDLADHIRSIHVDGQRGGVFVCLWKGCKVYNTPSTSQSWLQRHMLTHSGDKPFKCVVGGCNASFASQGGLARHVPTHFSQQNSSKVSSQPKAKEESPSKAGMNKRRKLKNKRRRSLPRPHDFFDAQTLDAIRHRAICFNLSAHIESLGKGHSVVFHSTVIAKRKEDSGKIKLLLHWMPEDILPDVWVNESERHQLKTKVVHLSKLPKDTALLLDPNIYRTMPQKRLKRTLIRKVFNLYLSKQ
structure (smiles),measurement,setting,value
"CCN(c1cc(-c2cccc(N(C)C(=O)c3cc(C(C)C)c(O)cc3O)c2)cc(C(=O)NCc2c(C)cc(C)[nH]c2=O)c1C)C1CCOCC1 [Compound 7, 3′-(2,4-Dihydroxy-5-isopropyl-N-methylbenzamido)-N-((4,6-dimethyl-2-oxo-1,2-dihydropyridin-3-yl)methyl)-5-(ethyl(tetrahydro-2H-pyran-4-yl)amino)-4-methyl-[1,1′-biphenyl]-3-carboxamide]",IC50,EZH2,6.29 nM
same,IC50,HSP90a,60.1 nM
same,"C7/DMSO, ANXA5 (P08758)",Pt3R cells [1]; protein decreased,0.406
same,"C7/DMSO, CORO1C (Q9ULV4)",Pt3R cells [1]; protein decreased,0.410
same,"C7/DMSO, CYB5B (O43169)",Pt3R cells [1]; protein decreased,0.568
same,"C7/DMSO, DDX6 (P26196)",Pt3R cells [1]; protein decreased,0.596
same,"C7/DMSO, DDX39A (O00148)",Pt3R cells [1]; protein decreased,0.515
same,"C7/DMSO, EIF3I (Q13347)",Pt3R cells [1]; protein decreased,0.624
same,"C7/DMSO, GNB2 (P62879)",Pt3R cells [1]; protein decreased,0.628
same,"C7/DMSO, H1–2 (P16403)",Pt3R cells [1]; protein decreased,0.334
same,"C7/DMSO, H2AZ1 (P0C0S5)",Pt3R cells [1]; protein decreased,0.603
same,"C7/DMSO, H2BC11 (P06899)",Pt3R cells [1]; protein decreased,0.423
same,"C7/DMSO, H2BC12 (O60814)",Pt3R cells [1]; protein decreased,0.419
same,"C7/DMSO, H4C1 (P62805)",Pt3R cells [1]; protein decreased,0.556
same,"C7/DMSO, HADHB (P55084)",Pt3R cells [1]; protein decreased,0.591
same,"C7/DMSO, HIST1H2AH (Q96KK5)",Pt3R cells [1]; protein decreased,0.245
same,"C7/DMSO, HIST2H3A (Q71DI3)",Pt3R cells [1]; protein decreased,0.240
same,"C7/DMSO, HMGB2 (P26583)",Pt3R cells [1]; protein decreased,0.575
same,"C7/DMSO, HMGB3 (O15347)",Pt3R cells [1]; protein decreased,0.573
same,"C7/DMSO, HNRNPA3 (P51991)",Pt3R cells [1]; protein decreased,0.377
same,"C7/DMSO, ILF3 (Q12906)",Pt3R cells [1]; protein decreased,0.645
same,"C7/DMSO, MCM3 (P25205)",Pt3R cells [1]; protein decreased,0.635
same,"C7/DMSO, MCM7 (P33993)",Pt3R cells [1]; protein decreased,0.586
same,"C7/DMSO, NASP (P49321)",Pt3R cells [1]; protein decreased,0.604
same,"C7/DMSO, NT5E (P21589)",Pt3R cells [1]; protein decreased,0.446
same,"C7/DMSO, PA2G4 (Q9UQ80)",Pt3R cells [1]; protein decreased,0.628
same,"C7/DMSO, PCBP1 (Q15365)",Pt3R cells [1]; protein decreased,0.628
same,"C7/DMSO, PTGES3 (Q15185)",Pt3R cells [1]; protein decreased,0.589
same,"C7/DMSO, RACK1 (P63244)",Pt3R cells [1]; protein decreased,0.627
same,"C7/DMSO, RPL26 (P61254)",Pt3R cells [1]; protein decreased,0.619
same,"C7/DMSO, RPL35 (P42766)",Pt3R cells [1]; protein decreased,0.629
same,"C7/DMSO, RPS6 (P62753)",Pt3R cells [1]; protein decreased,0.641
same,"C7/DMSO, RPS10 (P46783)",Pt3R cells [1]; protein decreased,0.608
same,"C7/DMSO, S100A13 (Q99584)",Pt3R cells [1]; protein decreased,0.638
same,"C7/DMSO, SERPINB6 (P35237)",Pt3R cells [1]; protein decreased,0.632
same,"C7/DMSO, SRSF7 (Q16629)",Pt3R cells [1]; protein decreased,0.605
same,"C7/DMSO, TAF15 (Q92804)",Pt3R cells [1]; protein decreased,0.609
same,"C7/DMSO, TNS3 (Q68CZ2)",Pt3R cells [1]; protein decreased,0.582
same,"C7/DMSO, TUBB4B (P68371)",Pt3R cells [1]; protein decreased,0.564
same,"C7/DMSO, TXNDC5 (Q8NBS9)",Pt3R cells [1]; protein decreased,0.635
same,"C7/DMSO, YWHAG (P61981)",Pt3R cells [1]; protein decreased,0.447
same,"C7/DMSO, ACTB (P60709)",Pt3R cells [1]; protein increased,1.657
same,"C7/DMSO, ARF3 (P61204)",Pt3R cells [1]; protein increased,1.944
same,"C7/DMSO, ATP5IF1 (Q9UII2)",Pt3R cells [1]; protein increased,1.646
same,"C7/DMSO, ATP6 V1E1 (P36543)",Pt3R cells [1]; protein increased,1.599
same,"C7/DMSO, CLIC1 (O00299)",Pt3R cells [1]; protein increased,2.598
same,"C7/DMSO, CTNNB1 (P35222)",Pt3R cells [1]; protein increased,1.550
same,"C7/DMSO, EEF1B2 (P24534)",Pt3R cells [1]; protein increased,1.792
same,"C7/DMSO, EHD1 (Q9H4M9)",Pt3R cells [1]; protein increased,1.555
same,"C7/DMSO, GIPC1 (O14908)",Pt3R cells [1]; protein increased,1.699
same,"C7/DMSO, HK1 (P19367)",Pt3R cells [1]; protein increased,1.921
same,"C7/DMSO, HSP90AA1 (P07900)",Pt3R cells [1]; protein increased,1.958
same,"C7/DMSO, HSPA1A (P0DMV8)",Pt3R cells [1]; protein increased,2.843
same,"C7/DMSO, HSPA4 (P34932)",Pt3R cells [1]; protein increased,1.561
same,"C7/DMSO, HSPA8 (P11142)",Pt3R cells [1]; protein increased,2.096
same,"C7/DMSO, HSPB1 (P04792)",Pt3R cells [1]; protein increased,1.661
same,"C7/DMSO, HSPE1 (P61604)",Pt3R cells [1]; protein increased,1.710
same,"C7/DMSO, HSPH1 (Q92598)",Pt3R cells [1]; protein increased,1.642
same,"C7/DMSO, LRPAP1 (P30533)",Pt3R cells [1]; protein increased,1.667
same,"C7/DMSO, NME1 (P15531)",Pt3R cells [1]; protein increased,3.299
same,"C7/DMSO, OCIAD2 (Q56VL3)",Pt3R cells [1]; protein increased,2.150
same,"C7/DMSO, OLA1 (Q9NTK5)",Pt3R cells [1]; protein increased,1.745
same,"C7/DMSO, P4HA2 (O15460)",Pt3R cells [1]; protein increased,1.588
same,"C7/DMSO, PSMD3 (O43242)",Pt3R cells [1]; protein increased,1.801
same,"C7/DMSO, PSMD14 (O00487)",Pt3R cells [1]; protein increased,1.579
same,"C7/DMSO, S100A10 (P60903)",Pt3R cells [1]; protein increased,1.664
same,"C7/DMSO, SERPINE1 (P05121)",Pt3R cells [1]; protein increased,4.203
same,"C7/DMSO, SERPINH1 (P50454)",Pt3R cells [1]; protein increased,2.186
same,"C7/DMSO, TWF1 (Q12792)",Pt3R cells [1]; protein increased,1.995
same,"C7/DMSO, ZYX (Q15942)",Pt3R cells [1]; protein increased,1.903
same,IC50,[2],1010 ± 690 nM
same,cell cycle,Pt3R cells [3],induced cell cycle arrest at the M phase
same,MitoSOX red signal representing ROS produced from mitochondria,mitochondria-derived ROS,remarkably enhanced
same,BBB penetration,[4],able to penetrate blood–brain barrier (BBB)
